From the METLIN SMRT retention time set (Domingo-Almenara et al. 2019)

Experiment: gradient 5% acetonitrile 3 min, to 50% in 2 min, to 85% in 15 min, held 3 min, 100 µL/min
Conditions: column: Zorbax Extend-C18 2.1 x 50 mm; eluents: water / acetonitrile, 0.1% formic acid
Procedure, shortened: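 A Zorbax Extend-C18 column (2.1 × 50 mm, 1.8 μm) run at 100 μL/min with water and acetonitrile, both containing 0.1% formic acid, separated mixtures of ~100 pure standards. The HPLC was coupled to a quadrupole time-of-flight mass spectrometer operated in positive and negative ionization mode, with dead and dwell volumes of 40 μL and 900 μL. Each retention time was taken from a computationally picked adduct peak that was then manually inspected.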

Row | Structure (SMILES) | RP-LC retention time [s]
1 | Cc1cnc(C2CCC2)n1CC1CCN(S(=O)(=O)Cc2cccc(F)c2)C1 (stereo not given) | 683
2 | Cc1sc(NC(=O)C(F)(F)F)nc1-c1ccc2c(c1)NC(=O)CO2 | 763
3 | CNC(=O)N1CCC(OC2CCN(Cc3ccccc3)CC2)CC1 | 555
4 | CC1=C(c2cccc(Cl)c2)S(=O)(=O)N=C1N1CCCN(C(=O)NC(C)C)CC1 | 802
5 | COc1ccc(OCC(=O)Nc2c(C(=O)N3CCN(c4ccccn4)CC3)oc3ccccc23)cc1 | 741
6 | Cc1ccc(F)cc1NC(=O)Cn1nc(N(C)C)c2ccccc2c1=O | 860
7 | Cc1nc(-c2csc(S(=O)(=O)N3CCC(C(=O)NCCN4CCOCC4)CC3)c2)no1 | 596
8 | O=C(COc1ccccc1)Nc1nnc(C2=COCCO2)o1 | 651
9 | COc1cccc(C(=O)NC2CCN(c3ccc(F)cc3)C2=O)c1 (stereo not given) | 756
10 | CC(Oc1cccc(Cl)c1)C(=O)NCC1CCOCC1 (stereo not given) | 779
11 | CCNC(=O)Nc1ccc(OCC(=O)N2CCN(c3ncccn3)CC2)nc1 | 604
12 | COc1ccc(Nc2c(C(=O)N3CCC(C)CC3)cnc3nc(C)ccc23)c(OC)c1 | 662
13 | COc1ccc(-c2ncc3c(n2)CCN(S(=O)(=O)Cc2ccc(C)cc2)C3)cc1 | 1050
14 | O=C(c1cc(C2CC2)[nH]n1)N1CCn2c(nnc2-c2ccccc2)C1 | 640
15 | Cc1ccc2c(C(=O)NCCc3cccs3)cc(NC(=O)C3CC3)cc2n1 | 633
16 | O=c1ccc(-c2ccc3c(c2)OCO3)nn1CCc1nc(-c2cccnc2)no1 | 720
17 | CCCOc1ccc(-c2noc(Cc3nc(-c4ccc(OC)c(OC)c4)cs3)n2)cc1 | 1220
18 | CCn1ccc(C(=O)N2CCc3c(-c4ccc(OC)cc4)cccc3[C@H]2C)n1 | 966
19 | CCn1cc(-c2nc(C)c(C(=O)NCc3ccc(C)cc3)s2)c2cccnc21 | 1000
20 | COc1cc(C(=O)N2CCCC2c2nc(-c3ccccc3Cl)no2)cc(OC)c1OC (stereo not given) | 906
21 | O=C(Oc1coc(CSc2ncccn2)cc1=O)c1cccs1 | 695
22 | Cc1cc(C2CCCN2C(=O)Cc2cccc(Cl)c2)no1 (stereo not given) | 816
23 | CCC(=O)N1CCc2c(C(=O)NCc3ccc4c(c3)OCO4)cccc21 | 718

Row | Structure (SMILES) | RP-LC retention time [s]
24 | O=C1CCCc2cc(S(=O)(=O)N3CCC(C(=O)Nc4cccc(F)c4)CC3)ccc2N1 | 770
25 | Cc1nc(-c2ccc(C(=O)NC3CCCC3)cc2)cs1 | 825
26 | O=C(Cn1cnc2c(sc3nc(-c4ccccc4)ccc32)c1=O)NCc1ccco1 | 887
27 | Cc1ccc(-c2nnc(Cc3nc(-c4ccncc4)no3)o2)cc1F | 814
28 | O=C(CCC(=O)N1CC2CCCN2c2ccccc21)NCCCN1CCCC1 (stereo not given) | 627
29 | COc1ccc(-c2noc(C3CCCN3C(=O)c3ccc(C)cc3)n2)cc1 (stereo not given) | 1010
30 | COCc1cn(C2CN(C(=O)c3cc(C)nn3C)C2)nn1 | 581
31 | COC(=O)c1ccc(NC(=O)Cn2nc3n(c2=O)CCCC3)cc1 | 647
32 | Cn1nccc1-c1cccc(-c2noc(-c3cc(F)cc(F)c3)n2)c1 | 1220
33 | CCn1nc(-c2ccc(OC)c(S(=O)(=O)N3CCC(C(N)=O)CC3)c2)c2c(c1=O)CCCC2 | 663
34 | CSc1cccc(NC(=O)CCc2c(-c3ccccc3)nc3ccccn23)c1 | 691
35 | Cc1ccc(C(=O)COc2ccc(N3C(=O)C4CCC(C)CC4C3=O)cc2)cc1C (stereo not given) | 1120
36 | CC(C)(C)C(=O)N1CCN(CC(F)(F)F)CC1 | 746
37 | CS(=O)(=O)N(C1CCOCC1)C1CN(C(=O)Nc2ccccc2)C1 | 666
38 | Cc1cccc(NC(=O)N2CCN(c3cnn4c(C)nnc4c3)CC2)c1 | 627
39 | Cc1cccc(OCc2nc(CCN(C)C(=O)NCc3ccco3)no2)c1 | 844
40 | NC(=O)c1ccc(NC(=O)C2CCN(c3cc(N4CCCCC4)ncn3)CC2)cc1 | 595
41 | Cc1ccccc1CNC(=O)C1CCCN(C(=O)c2[nH]c(C)c(C(=O)OC(C)C)c2C)C1 (stereo not given) | 896
42 | Fc1ccc(-n2cc(-c3noc(-c4ccccc4F)n3)nn2)cc1 | 1040
43 | Clc1ccccc1-c1noc(Cc2nnc(-c3ccccc3)o2)n1 | 978
44 | CC(C)NC(=O)c1ccc2c(c1)CCN2C(=O)C(C)C | 733
45 | O=C(Cc1nnc2c(-c3nc(C4CC4)no3)cccn12)NC1CCCC1 | 661
